The experiment addresses MEK5 PB1 domain binding to MEKK2 (MAP3K2) mutant PB1, human. Kind of experiment: mutant MEKK2-MEK5 PB1 binding inhibitors, SAR follow-up, biochemical, bead multiplex flow cytometry (AID 2151). The following applies: Bead-based multiplex flow cytometry. (In general: A flow cytometer gives signals particle by particle.)

Activity calls are given as the source filed them. The rule behind the calls is not given here. Some results are limits rather than exact numbers.

The EC50 is the concentration that produces a half-maximal response. Turning to `COc1cccc(-c2nn3c(-c4ccccn4)nnc3s2)c1`, the EC50 was > 30 µM (inactive).

For `c1coc(-c2nnc3sc(C4CCCCC4)nn23)c1`, the EC50 was > 30 µM (inactive).

With `c1csc(Cc2nn3c(-c4ccncc4)nnc3s2)c1`, the EC50 was > 30 µM (inactive).

For `COc1ccc(-c2nn3c(-c4ccccn4)nnc3s2)cc1OC`, the EC50 is > 30 µM (inactive).

As for `COc1cc([N+](=O)[O-])ccc1-c1nn2c(-c3ccccn3)nnc2s1`, the EC50 was > 30 µM (inactive).

For `COc1cc([N+](=O)[O-])ccc1-c1nn2c(-c3ccco3)nnc2s1`, the EC50 was > 30 µM (inactive).

As for `c1ccc(-c2nnc3sc(C4CCCCCC4)nn23)nc1`, the EC50 is > 30 µM (inactive).

Turning to `c1ccc(-c2nnc3sc(C4CCCCC4)nn23)nc1`, the EC50 is > 30 µM (inactive).

For the molecule `c1c[nH]c(-c2nn3c(-c4ccco4)nnc3s2)c1`, the EC50 is > 30 µM (inactive).

Consider `c1ccc(-c2nnc3sc(-c4ccc[nH]4)nn23)nc1`, for which the EC50 was > 30 µM (inactive).

With `c1coc(-c2nnc3sc(C4CCCCCC4)nn23)c1`, the EC50 is > 30 µM (inactive).

On to `CCOc1cccc(-c2nn3c(-c4ccco4)nnc3s2)c1`, for which the EC50 is > 30 µM (inactive).

Consider `CCOc1cccc(-c2nn3c(-c4cccs4)nnc3s2)c1`, for which the EC50 is > 30 µM (inactive).

Source of the values: PubChem BioAssay AID2151 (NMMLSC, 2009).
